Experimental data from US7951906B2, “Compounds capable of interacting with a cell-surface fibroblast growth factor receptor” (Enkam Pharmaceuticals A/S, priority 2002, dated 2011).
Positions of bridges follow the written chain, without caps; N, C: chain ends. Chains are numbered I, II in the order given. No end group written: not given here.

Key:
FGFR1 Ig modules 2, 3 = target: T1, FGFR1 Ig modules 2, 3 (Mus musculus, UniProt P16092); experiment: SPR binding to immobilized FGFR Ig modules 2, 3; details: for coefficient of dissociation: immobilized FGFR modules 2, 3
T1 construct: amino acids 249-365 and 141-365 of FGFR (swissprot p16092), respectively; made in house; host or cells: Drosophila S2 cells
T1 sequence (P16092 141-365): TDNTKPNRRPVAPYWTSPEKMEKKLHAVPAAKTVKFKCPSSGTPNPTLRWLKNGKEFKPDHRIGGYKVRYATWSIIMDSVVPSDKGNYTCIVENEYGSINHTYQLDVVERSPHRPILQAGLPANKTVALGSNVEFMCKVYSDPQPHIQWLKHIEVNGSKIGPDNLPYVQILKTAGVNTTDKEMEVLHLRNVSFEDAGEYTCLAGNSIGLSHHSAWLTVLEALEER
Description: The NCAM F3 modules 1, 2 (without expression of exons a, AAG), and FGFR1 Ig modules 2, 3 were produced using rat NCAM cDNA and mouse FGFR1 (IIIC iso-form) cDNA. The F3 module 1 and the combined F3 modules 1, 2 consist of […] (SEQ ID NO:173) and amino acids 507-611 and 507-705 of NCAM (swissprot p13596), respectively. […] The FGFR Ig module 2 consists of […] […] The FGFR Ig module 3 and the combined Ig modules 2, 3 consist of […] (SEQ ID NO:174) and amino acids 249-365 and 141-365 of FGFR (swissprot p16092), respectively. […] All the proteins were purified by affinity chromatography using Ni2^+−NTA resin (Qiagen, USA) and/or ion exchange chromatography and gel filtration. ^15N-labelled F3 module 2 was produced as described (Thomsen et al., 1996). The NCAM Ig modules 1, 2 and 3 (RV and amino acids 20-308 of rat NCAM, swissprot p13596) was produced as described (Soroka et al., 2002).
The flow-rate was 5 μl/min. […] The FGFR Ig modules 2, 3 were immobilized on a sensor chip CM5 using amine coupling kit (Biosensor AB) as follows: 1) the two halves of the chip (designated Fc1 and Fc2) were activated by 20 μl activation solution; 2) the protein was immobilized on Fc1 using 12 μl 20 μg/ml protein in 10 mM sodium phosphate buffer pH 6.0; 3) Fc1 and Fc2 were blocked by 35 μl blocking solution. […] The resulting curve was used for analysis.

hippocampal neurons = experiment: Neurite outgrowth from hippocampal neurons; format: cell-based, rat; details: for stimulation of neurite outgrowth / length of neurites: 24 h, 5 μM F3 module 2; for retained stimulatory effect relative to the entire (non-mutated) FG loop peptide: peptides 50 μM
Procedure: Dissociated neurons from embryonic rat hippocampus (embryonic day 19), prepared as described (Skladchikova et al., 1999), were grown on Permanox plastic (Nunc) for 24 h at a density of 6000 cells/cm^2, at 37° C., 5% CO2 in Neurobasal medium containing 20 mM Hepes, 100 U/ml penicillin, 100 μg/ml streptomycin, 0.4% BSA supplemented with B27 (Gibco BRL) and the below specified compounds. After 24 h, cells were fixed with paraformaldehyde, stained with Coomassie Brilliant Blue R250 and the length of neurites was measured as described (Skladchikova et al, 1999).

human FGFR1 = target: T2, human FGFR1 (Homo sapiens, UniProt P11362); experiment: FGFR1 phosphorylation, Assay 1 (TREX-293 cells, StrepII-tagged FGFR1); format: cell-based; details: 20 min, 5 μM F3 module, 2.5 μM dendrimeric FG loop peptide
T2 construct: expressed in transfected cells; host or cells: TREX-293 cells (Invitrogen), Flp-In system
Procedure: Assay 1: TREX-293 cells (Invitrogen) were stably transfected with human FGFR1 having a C-terminal StrepII-tag (IBA biotech), using the Flp-In system (Invitrogen). For the study of phosphorylation: ˜2×10^7 cells were starved overnight before stimulation for 20 min with the specified compounds. Cells were lysed in PBS with 1% NP-40 and phosphatase inhibitors cocktail set II (Calbiochem). The cleared cell lysates were incubated with 50 μl agarose-coupled anti-phosphotyrosine antibodies (4G10-AC, Upstate Biotechnologies) for 3 hrs at 4° C. Care was taken to calibrate the amount of cells employed, so that considerable increases in phosphorylated FGFR could be detected. The bound protein was washed, eluted using 150 mM phenyl phosphate (Sigma), precipitated by 12% trichloroacetic acid, washed in cold acetone and dissolved in SDS-PAGE sample buffer. Immunoblotting was performed using antibodies against the recombinant StrepII-tag (IBA biotech). For immunoprecipitation: ˜1×10^7 cells were transiently transfected with the 180 kDa NCAM isoform or a control vector. Cells were incubated for 24 h and then starved overnight. After lysis, FGFR was purified on a StrepTactin Minicolumn (IBA Biotech) according to the manufacturer's instructions, and analyzed by immunoblotting with polyclonal antibodies against human NCAM.

[1] = tested on: polyclonal antibody raised against the intact FGL-peptide; experiment: Competitive ELISA of immunoreactivity with antibody raised against FGL-peptide; format: binding; details: rabbit serum
Description: Antibody specifically recognising an epitope comprising SEQ ID NO: 1 (FGL-peptide) were raised in rabbits according the standard procedure (Gill B M, Barbosa J A, Dinh T Q, Garrod S, O'Connor D T: Chromogranin B: isolation from pheochromocytoma, N-terminal sequence, tissue distribution and secretory vesicle processing. Regul Peptides 33:223-35, 1991). Synthetic FGL-peptide was coupled to a carrier protein, KLH (Keyhole Limpets Hemocyanin). The peptide was mixed with Freunds incomplete adjuvant and the mixture was injected into rabbits. 208 μg peptide was used per immunisation (per rabbit).
Antibodies (serum) were tested for specificity by competitive ELISA using a series FGL-peptide truncated variants according to the protocol described in R. J. Jenny, T. L. Messier, L. A. Ouellette, and W. R. Church, Methods Enzymol. 222, 400 (1993). 100% immunoreactivity was ob-served only with the intact FGL-peptide consisting of SEQ ID NO: 1.

T2 sequence (P11362 22-822): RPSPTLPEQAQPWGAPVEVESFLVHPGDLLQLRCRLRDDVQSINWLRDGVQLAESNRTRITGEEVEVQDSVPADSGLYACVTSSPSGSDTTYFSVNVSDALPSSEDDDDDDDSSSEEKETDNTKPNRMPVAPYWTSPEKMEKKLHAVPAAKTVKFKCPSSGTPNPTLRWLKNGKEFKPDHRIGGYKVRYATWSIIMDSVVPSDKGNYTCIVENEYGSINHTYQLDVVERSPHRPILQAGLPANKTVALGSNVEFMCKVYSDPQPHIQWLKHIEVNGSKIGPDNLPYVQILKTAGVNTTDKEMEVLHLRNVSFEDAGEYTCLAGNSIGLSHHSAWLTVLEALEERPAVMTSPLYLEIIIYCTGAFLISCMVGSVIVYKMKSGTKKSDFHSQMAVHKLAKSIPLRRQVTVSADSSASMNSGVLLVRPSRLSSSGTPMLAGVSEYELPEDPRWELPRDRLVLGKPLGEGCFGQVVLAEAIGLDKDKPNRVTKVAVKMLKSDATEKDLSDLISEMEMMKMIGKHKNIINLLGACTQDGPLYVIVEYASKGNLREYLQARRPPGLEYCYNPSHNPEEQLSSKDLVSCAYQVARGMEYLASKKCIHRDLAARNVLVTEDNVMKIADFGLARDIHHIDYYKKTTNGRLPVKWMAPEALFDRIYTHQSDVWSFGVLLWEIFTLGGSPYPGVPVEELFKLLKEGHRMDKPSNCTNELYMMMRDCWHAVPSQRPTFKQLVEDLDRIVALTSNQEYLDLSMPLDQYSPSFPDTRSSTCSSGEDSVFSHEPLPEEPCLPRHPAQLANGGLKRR

For “dendrimeric EF loop peptide: four peptide sequences of SEQ ID NO: 9 connected to a three-lysine backbone through their C-termini (TIMGLKPETRYAVR; also: four copies linked via C-termini to three-lysine dendrimer backbone)”, the “binding to the immobilized FGFR modules” value (FGFR1 Ig modules 2, 3) was “real-time binding”.

With `Nc1ncnc2c1ncn2[C@@H]1O[C@H](COP(=O)(O)OP(=O)(O)CP(=O)(O)O)[C@@H](O)[C@H]1O` [AMP-PCP, reference compound] the “inhibition of the neuritogenic effect induced by the F3 module 2” value (hippocampal neurons; 5 μM F3 module, ATP or AMP-PCP 0.4, 1.0 mM) was “complete inhibition” and the “inhibition of the neuritogenic effect induced by the FG loop peptide” value (hippocampal neurons; 50 μM peptide, ATP or AMP-PCP 0.4, 1.0 mM) was “complete inhibition”.

“I: EVYVVAENQQGKSKAKK / II: EVYVVAENQQGKSKAK / III: EVYVVAENQQGKSKA / IV: EVYVVAENQQGKSKA (amide I:16-IV:C, I:17-II:C, II:16-III:C (inferred)) [dendrimeric FG loop peptide]” was tested, and the coefficient of dissociation (FGFR1 Ig modules 2, 3) was 3.97±2.29×10^−3 s^−1, the kon (FGFR1 Ig modules 2, 3; immobilized FGFR modules 2, 3, read-out: coefficient of association) was 2070 ± 1.08e+06 M⁻¹ s⁻¹ and the “FGFR phosphorylation compared to the non-stimulated cells” value (human FGFR1) was “substantially increase”.

“t1: truncated FGL-peptide lacking the three N-terminal amino acids (VVAENQQGKSKA; NCAM Fn III, 2 [Swiss-Prot P13591] FGFR binding motif (variant))” showed an immunoreactivity [1] of 40%.

In the case of “peptide derived from FGF2: peptide from a loop region in FGF2 similar to the heptameric NCAM peptide (AMKEDGR; FGF2)”, the “stimulation of neurite outgrowth / length of neurites” value (hippocampal neurons; hippocampal neurons) is reported as “to the same extent as the similar NCAM peptide”.

In the case of “YKK: the FG loop peptide in which Y^74, K^83 and K^85 were substituted with alanine (EVAVVAENQQGASAA)”, the “inhibition of the stimulatory effect of the peptide by ATP” value (hippocampal neurons; 50 μM peptide, ATP 0.4, 1.0 mM) is reported as “could no longer be inhibited”, the “stimulation of neurite outgrowth / length of neurites” value (hippocampal neurons; hippocampal neurons) is reported as “retained its neuritogenic potency” and the “retained stimulatory effect relative to the entire (non-mutated) FG loop peptide” value (hippocampal neurons; hippocampal neurons) is reported as “about 60%”.

For “nonamer V^76-S^84: truncated version of the FG loop peptide, residues V^76-S^84 (VAENQQGKS; NCAM Fn III, 2 [Swiss-Prot P13591] FGFR binding motif (Variant))”, the “retained stimulatory effect relative to the entire (non-mutated) FG loop peptide” value (hippocampal neurons; hippocampal neurons) was “approximately 50%”.

In the case of `Cc1c[nH]c(/C=C2\C(=O)Nc3ccccc32)c1CCC(=O)O` [SU54402, reference compound], the “block of neurite outgrowth stimulation by the EF loop peptide” value (hippocampal neurons; hippocampal neurons) is reported as “specifically blocked”.

In the case of “t4: truncated FGL-peptide lacking the three C-terminal amino acids (EVYVVAENQQGK; NCAM Fn III, 2 [Swiss-Prot P13591] FGFR binding motif (variant))”, the immunoreactivity [1] is reported as 80%.

In the case of “TIMGLKPETRYAVR (FIII,1 domain of NCAM (Swiss-Prot P13591) FGFR binding motif) [EF loop peptide, peptide corresponding to residues T^573-R^586 of the NCAM F3 module 1]”, the “binding to the immobilized FGFR modules” value (FGFR1 Ig modules 2, 3) is reported as “cannot be detected” and the “stimulation of neurite outgrowth / length of neurites” value (hippocampal neurons; hippocampal neurons) is reported as “stimulate the neurite outgrowth significantly”.

For “SEQ ID NO:171: 11-amino acid fragment of SEQ ID NO: 5 (axonal-associated cell adhesion molecule), two amino acids truncated from the C-terminus (VAENSRGKNVA; Axonal-associated cell adhesion molecule [NCBI NP_446331] FGFR binding motif)”, the “stimulation of neurite outgrowth / length of neurites” value (hippocampal neurons; hippocampal neurons) was “capable of stimulation of neurite outgrowth” and the “concentration of the peptide at maximal effect” value (hippocampal neurons; hippocampal neurons, neurite outgrowth) was “about 0.3 μg/ml”.

With “SEQ ID NO:151: truncated version of the FG loop peptide, residues A^77-K^83 of the NCAM F3 module 2 (AENQQGK; NCAM Fn III, 2 [Swiss-Prot P13591] FGFR binding motif (Variant))” the “neurite outgrowth in dose-response study” value (hippocampal neurons; hippocampal neurons, neurite length versus concentration) was “induced neurite outgrowth with a bell-shaped curve” and the “retained stimulatory effect relative to the entire (non-mutated) FG loop peptide” value (hippocampal neurons; hippocampal neurons) was “approximately 50%”.

B1: NCAM F3 modules 1, 2: recombinant protein: AGHHHHHH and amino acids 507-705 of rat NCAM (swissprot p13596) (protein)
chain: AGHHHHHHQADTPSSPSIDRVEPYSSTAQVQFDEPEATGGVPILKYKAEWKSLGEEAWHSKWYDAKEANMEGIVTIMGLKPETRYAVRLAALNGKGLGEISAATEFKTQPVREPSAPKLEGQMGEDGNSIKVNLIKQDDGGSPIRHYLVKYRALASEWKPEIRLPSGSDHVMLKSLDWNAEYEVYVVAENQQGKSKAAHFVFRTSAQ
For B1, the “binding to the immobilized FGFR modules” value (FGFR1 Ig modules 2, 3) was “binds” and the coefficient of dissociation (FGFR1 Ig modules 2, 3) was 5.56±0.07×10^−3 s^−1.

B2: NCAM Ig modules 1, 2 and 3: control protein: RV and amino acids 20-308 of rat NCAM, swissprot p13596 (protein)
chain: RVLQVDIVPSQGEISVGESKFFLCQVAGDAKDKDISWFSPNGEKLSPNQQRISVVWNDDDSSTLTIYNANIDDAGIYKCVVTAEDGTQSEATVNVKIFQKLMFKNAPTPQEFKEGEDAVIVCDVVSSLPPTIIWKHKGRDVILKKDVRFIVLSNNYLQIRGIKKTDEGTYRCEGRILARGEINFKDIQVIVNVPPTVQARQSIVNATANLGQSVTLVCDADGFPEPTMSWTKDGEPIENEEEDDEKHIFSDDSSELTIRNVDKNDEAEYVCIAENKAGEQDASIHLKVFAK
For B2, the “binding to the immobilized FGFR modules” value (FGFR1 Ig modules 2, 3) was “does not bind”.
